Here are results for 3 compounds from article PMC9030254, “Target Hopping from Protein Kinases to PXR: Identification of Small-Molecule Protein Kinase Inhibitors as Selective Modulators of Pregnane X Receptor from TüKIC Library” (Cells, 2022).

For series [1], the system named is 335 wild-type protein kinases. Description: Kinase inhibition profiling, selectivity score. The format is biochemical. The method, then:
(§1) The analysis was performed by ProQinase (Freiburg, Germany).

A further series concerns the target T1, PKCeta (Homo sapiens, UniProt P24723).
T1 construct: purchased ProQinase (Freiburg, Germany)
Kind of series: Kinase profiling. The series is classed as biochemical. Here is the method:
as §1

Another series addresses T2, CDK1/CycB1 (Homo sapiens, UniProt P06493).
T2 construct: purchased ProQinase (Freiburg, Germany)
Kind of series: Kinase profiling. The format is biochemical. The method, then: as §1

The next series addresses T3, DAPK2 (Homo sapiens, UniProt Q9UIK4).
T3 construct: purchased ProQinase (Freiburg, Germany)
Kind of series: Kinase profiling. The series is classed as biochemical. The method, then: as §1

The next series has as its target T4, TBK1 (Homo sapiens, UniProt Q9UHD2).
T4 construct: purchased ProQinase (Freiburg, Germany)
T4 sequence (Q9UHD2 1-729): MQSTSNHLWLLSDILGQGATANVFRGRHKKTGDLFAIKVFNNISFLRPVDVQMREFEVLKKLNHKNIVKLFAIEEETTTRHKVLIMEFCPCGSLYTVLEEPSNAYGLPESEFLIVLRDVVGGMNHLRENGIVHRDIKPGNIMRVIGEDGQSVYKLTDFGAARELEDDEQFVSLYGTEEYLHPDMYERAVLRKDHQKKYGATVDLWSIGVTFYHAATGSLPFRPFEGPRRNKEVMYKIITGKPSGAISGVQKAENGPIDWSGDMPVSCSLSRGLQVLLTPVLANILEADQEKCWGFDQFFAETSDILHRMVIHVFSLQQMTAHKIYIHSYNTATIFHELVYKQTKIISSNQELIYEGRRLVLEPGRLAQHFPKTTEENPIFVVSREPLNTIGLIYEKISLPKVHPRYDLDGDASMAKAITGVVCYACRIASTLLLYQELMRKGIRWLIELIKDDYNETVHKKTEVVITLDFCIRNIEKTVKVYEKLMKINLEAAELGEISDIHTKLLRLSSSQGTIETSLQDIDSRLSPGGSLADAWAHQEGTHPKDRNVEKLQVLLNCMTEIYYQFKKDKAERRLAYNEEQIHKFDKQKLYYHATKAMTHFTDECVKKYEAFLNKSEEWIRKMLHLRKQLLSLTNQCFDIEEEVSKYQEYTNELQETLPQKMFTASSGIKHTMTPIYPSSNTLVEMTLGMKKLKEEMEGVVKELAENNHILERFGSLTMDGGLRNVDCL
Description: Kinase profiling. The format is biochemical. The method, then:
as §1

The target of the next series is T5, WNK2 (Homo sapiens, UniProt Q9Y3S1).
T5 construct: purchased ProQinase (Freiburg, Germany)
Description: Kinase profiling. The format is biochemical. Here is the method:
as §1

The target of the next series is T6, PKCbeta1 (Homo sapiens, UniProt P05771).
T6 construct: purchased ProQinase (Freiburg, Germany)
Description: Kinase profiling. The series is classed as biochemical. The method, then: as §1

The target of a further series is T7, PXR (Homo sapiens, UniProt O75469).
T7 sequence (O75469 1-434): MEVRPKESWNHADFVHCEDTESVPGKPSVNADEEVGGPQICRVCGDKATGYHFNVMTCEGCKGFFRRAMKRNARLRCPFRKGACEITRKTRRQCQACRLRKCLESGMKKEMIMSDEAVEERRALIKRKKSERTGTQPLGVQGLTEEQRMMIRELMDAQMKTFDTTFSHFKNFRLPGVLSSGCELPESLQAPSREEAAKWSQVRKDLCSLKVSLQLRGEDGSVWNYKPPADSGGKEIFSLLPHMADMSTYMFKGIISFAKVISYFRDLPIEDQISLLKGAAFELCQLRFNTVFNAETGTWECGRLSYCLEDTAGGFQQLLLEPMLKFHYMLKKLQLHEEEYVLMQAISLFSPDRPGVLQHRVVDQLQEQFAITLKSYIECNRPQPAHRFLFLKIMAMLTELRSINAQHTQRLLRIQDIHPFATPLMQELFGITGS
Description: Competitive radioligand binding assay ([3H]SR12813). Details: purchased Eurofins Cerep (contract assay service). Particulars: 7 concentrations 0.01-10 µM, duplicate; read-out: IC50, inhibition of binding of 3H-labeled SR12813 to PXR. The method, then: The assay was performed by Eurofins Cerep (Celle-Lévescault, France). […] Compound binding was calculated as % inhibition of the binding of the radioactively labeled PXR ligand [3H]SR12813 to recombinant human PXR, as described previously.

In a further series the target is T8, PXR(S208W/S247W/C284W) (Homo sapiens, UniProt O75469, C284W/S208W/S247W).
T8 construct: expressed in transfected cells; host or cells: HepG2
Kind of series: LBP-filled PXR mutant CYP3A4 reporter assay. The series is classed as cell-based. The note with it: HepG2, 10 µM, 24 h. Here is the method: For testing nuclear receptor selectivity and LBP-filled PXR mutant activation, transient batch transfection was conducted as above, but with HepG2 cells and the following plasmids, with amounts per well of 0.23–0.27 µg pGL4-CYP3A4(-7830Δ7208-364) or pGL3(DR3)3Tk (as reporter for VDR), 0.01 µg pMetLuc2control, and 0.03 µg either CAR1, CAR3, VDR, or PXR(S208W/S247W/C284W) expression plasmids. In addition, 0.03 µg RXRα expression plasmid was added to CAR3 transfections. Metridia luciferase activity was measured from 10 µL of medium supernatant after adding 100 µL Renilla luciferase assay solution.
Figure 5 PXR binding of phenylaminobenzosuberones is indicated by cellular PXR LBD assembly assay and inhibition of LBP-filled PXR mutant (A) Novel compounds induce PXR LBD assembly. […] (B) Effects of novel compounds on LBP-filled PXR mutant. HepG2 cells were transiently transfected with CYP3A4 reporter and expression plasmid encoding PXR(S208W/S247W/C284W) and treated as described above. […] Statistically significant differences are illustrated with asterisks. ** p ˂ 0.01, compared to respective treatments with DMSO analyzed by repeated measures one-way ANOVA with Dunnett’s multiple comparisons test.
(Reporter assays use an easily measured gene product as a stand-in for the process of interest.)

T2 sequence (P06493 whole entry): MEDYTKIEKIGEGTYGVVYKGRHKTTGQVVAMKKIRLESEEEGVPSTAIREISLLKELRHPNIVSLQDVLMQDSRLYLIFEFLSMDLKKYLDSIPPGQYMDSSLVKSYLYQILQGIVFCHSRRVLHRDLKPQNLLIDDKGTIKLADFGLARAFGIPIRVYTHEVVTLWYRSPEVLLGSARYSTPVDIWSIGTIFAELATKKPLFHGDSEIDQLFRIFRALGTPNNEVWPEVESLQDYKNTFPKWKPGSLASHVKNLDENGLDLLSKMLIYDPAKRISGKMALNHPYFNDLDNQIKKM
T2 sequence (P14635 whole entry partner): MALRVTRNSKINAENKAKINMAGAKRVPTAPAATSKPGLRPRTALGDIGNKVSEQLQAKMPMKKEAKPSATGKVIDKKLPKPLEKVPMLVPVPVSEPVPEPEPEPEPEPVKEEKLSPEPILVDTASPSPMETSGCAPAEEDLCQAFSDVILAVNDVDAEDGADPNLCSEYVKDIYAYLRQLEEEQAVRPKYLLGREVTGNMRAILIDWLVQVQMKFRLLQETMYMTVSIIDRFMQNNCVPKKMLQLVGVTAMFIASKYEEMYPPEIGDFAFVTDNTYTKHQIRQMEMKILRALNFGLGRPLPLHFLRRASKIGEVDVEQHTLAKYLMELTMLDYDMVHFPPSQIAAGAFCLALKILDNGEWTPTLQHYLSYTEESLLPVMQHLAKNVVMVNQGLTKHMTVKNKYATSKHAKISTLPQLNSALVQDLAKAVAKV
T5 sequence (Q9Y3S1 whole entry): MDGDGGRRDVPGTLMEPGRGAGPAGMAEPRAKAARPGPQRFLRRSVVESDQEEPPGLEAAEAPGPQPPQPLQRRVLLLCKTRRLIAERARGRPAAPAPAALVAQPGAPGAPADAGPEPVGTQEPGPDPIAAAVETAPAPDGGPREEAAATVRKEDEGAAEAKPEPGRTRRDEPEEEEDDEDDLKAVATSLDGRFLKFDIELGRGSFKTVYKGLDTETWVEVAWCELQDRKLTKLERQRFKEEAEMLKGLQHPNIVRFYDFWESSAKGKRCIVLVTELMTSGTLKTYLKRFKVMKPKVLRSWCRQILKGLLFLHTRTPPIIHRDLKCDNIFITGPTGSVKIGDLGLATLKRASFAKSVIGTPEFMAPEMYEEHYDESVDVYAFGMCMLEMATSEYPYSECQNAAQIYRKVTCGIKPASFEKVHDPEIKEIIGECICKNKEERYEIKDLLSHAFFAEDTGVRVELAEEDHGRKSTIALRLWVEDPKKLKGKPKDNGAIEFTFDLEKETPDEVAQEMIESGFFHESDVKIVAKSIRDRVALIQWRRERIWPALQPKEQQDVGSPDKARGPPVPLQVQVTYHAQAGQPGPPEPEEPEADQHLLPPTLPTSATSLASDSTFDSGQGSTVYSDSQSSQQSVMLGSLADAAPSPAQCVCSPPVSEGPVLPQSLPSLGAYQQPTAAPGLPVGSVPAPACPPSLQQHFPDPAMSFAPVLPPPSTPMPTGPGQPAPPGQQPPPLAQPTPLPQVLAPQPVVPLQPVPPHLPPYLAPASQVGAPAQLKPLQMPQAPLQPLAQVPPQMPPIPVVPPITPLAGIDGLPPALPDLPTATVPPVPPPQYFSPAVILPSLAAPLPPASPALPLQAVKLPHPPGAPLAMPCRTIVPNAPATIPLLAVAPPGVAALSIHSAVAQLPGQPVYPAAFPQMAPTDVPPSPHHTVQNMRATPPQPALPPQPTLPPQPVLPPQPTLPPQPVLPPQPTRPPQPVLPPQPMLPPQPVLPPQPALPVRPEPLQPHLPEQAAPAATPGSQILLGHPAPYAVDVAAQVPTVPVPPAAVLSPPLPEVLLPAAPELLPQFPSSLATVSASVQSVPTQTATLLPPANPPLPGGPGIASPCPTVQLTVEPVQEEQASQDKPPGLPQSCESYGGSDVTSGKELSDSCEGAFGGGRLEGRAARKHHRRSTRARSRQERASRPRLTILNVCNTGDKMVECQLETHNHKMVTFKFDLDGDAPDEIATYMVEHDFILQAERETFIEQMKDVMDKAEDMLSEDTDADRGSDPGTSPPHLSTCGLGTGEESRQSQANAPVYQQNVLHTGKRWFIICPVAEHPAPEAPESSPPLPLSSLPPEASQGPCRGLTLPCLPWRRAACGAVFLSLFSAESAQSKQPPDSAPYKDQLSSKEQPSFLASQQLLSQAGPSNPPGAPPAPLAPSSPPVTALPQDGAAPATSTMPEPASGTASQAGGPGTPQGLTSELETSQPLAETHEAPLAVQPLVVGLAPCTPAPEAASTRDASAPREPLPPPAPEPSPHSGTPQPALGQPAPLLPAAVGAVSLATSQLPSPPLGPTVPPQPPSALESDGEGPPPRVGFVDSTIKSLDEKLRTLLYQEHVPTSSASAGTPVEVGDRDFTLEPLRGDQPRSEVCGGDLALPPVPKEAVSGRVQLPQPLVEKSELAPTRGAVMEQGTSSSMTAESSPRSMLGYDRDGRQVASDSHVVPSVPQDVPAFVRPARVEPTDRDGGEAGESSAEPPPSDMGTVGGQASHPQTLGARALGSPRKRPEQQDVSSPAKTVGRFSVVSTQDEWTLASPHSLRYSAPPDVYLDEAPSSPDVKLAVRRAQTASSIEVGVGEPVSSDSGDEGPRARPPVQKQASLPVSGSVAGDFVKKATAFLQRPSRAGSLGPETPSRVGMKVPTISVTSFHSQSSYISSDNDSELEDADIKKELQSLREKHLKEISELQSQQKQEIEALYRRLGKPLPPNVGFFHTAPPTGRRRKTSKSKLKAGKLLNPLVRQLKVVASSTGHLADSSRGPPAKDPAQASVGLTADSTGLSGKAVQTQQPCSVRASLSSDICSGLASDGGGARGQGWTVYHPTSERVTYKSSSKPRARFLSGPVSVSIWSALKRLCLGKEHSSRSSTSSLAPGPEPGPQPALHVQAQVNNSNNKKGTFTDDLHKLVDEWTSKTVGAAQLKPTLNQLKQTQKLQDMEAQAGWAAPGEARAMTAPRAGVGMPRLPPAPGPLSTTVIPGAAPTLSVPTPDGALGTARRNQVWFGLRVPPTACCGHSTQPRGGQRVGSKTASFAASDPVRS
T6 sequence (P05771 whole entry): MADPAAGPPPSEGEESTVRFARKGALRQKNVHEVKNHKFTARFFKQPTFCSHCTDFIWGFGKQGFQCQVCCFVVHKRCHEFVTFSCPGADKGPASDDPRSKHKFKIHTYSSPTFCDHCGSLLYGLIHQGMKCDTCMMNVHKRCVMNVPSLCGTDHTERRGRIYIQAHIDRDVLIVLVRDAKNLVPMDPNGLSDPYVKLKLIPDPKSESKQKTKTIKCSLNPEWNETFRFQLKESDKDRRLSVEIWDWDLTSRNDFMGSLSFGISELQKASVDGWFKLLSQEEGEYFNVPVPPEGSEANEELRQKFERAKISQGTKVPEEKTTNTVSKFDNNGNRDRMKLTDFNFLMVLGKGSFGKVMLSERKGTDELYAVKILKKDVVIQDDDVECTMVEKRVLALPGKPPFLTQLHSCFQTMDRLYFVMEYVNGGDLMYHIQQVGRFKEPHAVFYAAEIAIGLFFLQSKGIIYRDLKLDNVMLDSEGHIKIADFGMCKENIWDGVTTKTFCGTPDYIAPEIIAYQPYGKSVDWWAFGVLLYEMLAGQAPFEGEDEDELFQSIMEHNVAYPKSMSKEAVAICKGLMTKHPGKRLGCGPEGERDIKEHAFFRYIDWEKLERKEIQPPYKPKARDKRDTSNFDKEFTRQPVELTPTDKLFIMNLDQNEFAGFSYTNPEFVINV
T3 sequence (Q9UIK4 whole entry): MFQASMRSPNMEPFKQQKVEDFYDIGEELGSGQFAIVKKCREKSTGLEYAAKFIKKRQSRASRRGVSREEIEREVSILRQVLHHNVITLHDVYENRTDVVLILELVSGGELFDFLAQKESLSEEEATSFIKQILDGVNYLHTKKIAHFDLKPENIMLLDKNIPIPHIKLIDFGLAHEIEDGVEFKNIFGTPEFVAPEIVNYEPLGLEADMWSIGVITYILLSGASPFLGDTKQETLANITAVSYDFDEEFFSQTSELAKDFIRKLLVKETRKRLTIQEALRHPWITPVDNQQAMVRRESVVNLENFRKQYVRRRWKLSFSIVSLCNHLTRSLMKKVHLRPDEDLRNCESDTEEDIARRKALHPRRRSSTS
T1 sequence (P24723 whole entry): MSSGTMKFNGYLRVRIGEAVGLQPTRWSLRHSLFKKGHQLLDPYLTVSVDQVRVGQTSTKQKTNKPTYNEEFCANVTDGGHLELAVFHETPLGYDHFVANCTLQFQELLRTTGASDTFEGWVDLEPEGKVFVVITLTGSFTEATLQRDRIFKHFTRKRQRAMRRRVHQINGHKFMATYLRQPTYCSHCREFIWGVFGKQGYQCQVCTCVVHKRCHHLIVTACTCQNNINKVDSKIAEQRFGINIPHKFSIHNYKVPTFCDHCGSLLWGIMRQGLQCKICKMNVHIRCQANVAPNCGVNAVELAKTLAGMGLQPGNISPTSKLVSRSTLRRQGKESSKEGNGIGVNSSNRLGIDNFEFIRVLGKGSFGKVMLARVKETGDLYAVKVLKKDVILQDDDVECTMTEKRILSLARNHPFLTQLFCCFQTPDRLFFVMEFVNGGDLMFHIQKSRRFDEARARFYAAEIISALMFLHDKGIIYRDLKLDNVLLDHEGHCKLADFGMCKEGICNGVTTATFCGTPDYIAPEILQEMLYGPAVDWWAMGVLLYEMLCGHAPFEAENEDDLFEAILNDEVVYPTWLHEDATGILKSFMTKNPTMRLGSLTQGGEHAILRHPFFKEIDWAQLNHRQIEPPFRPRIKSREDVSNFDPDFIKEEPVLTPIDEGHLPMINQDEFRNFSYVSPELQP

Take `O=C(Cc1ccccc1)Nc1ccc(F)c(Nc2ccc3c(c2)CCCCC3=O)c1` [Compound 100]: the “Selectivity Score (< 50 % residual activity)” value is given as 0.015 in series [1] (1.0E-05 M) and 0.003 in series [1] (1.0E-06 M). Further, the Residual activity on PKCeta (1.0E-05 M) is 115 % of control; on PKCeta (1.0E-06 M) it was 116 % of control; at CDK1/CycB1 (1.0E-05 M), 100 % of control; on CDK1/CycB1 (1.0E-06 M), 107 % of control; on DAPK2 (1.0E-05 M) it was 124 % of control; on DAPK2 (1.0E-06 M), 113 % of control. Besides, the Residual activity on TBK1 (1.0E-05 M) was 101 % of control; at TBK1 (1.0E-06 M) it was 103 % of control; at WNK2 (1.0E-05 M) it was 100 % of control; at WNK2 (1.0E-06 M), 95 % of control; at PKCbeta1 (1.0E-05 M), 92 % of control; on PKCbeta1 (1.0E-06 M) it was 91 % of control. Besides, at PXR, the half-maximal inhibitory concentration (IC50) (as a rule, the concentration that inhibits the measured activity by half) amounted to 4.5 µM. The “suppression of constitutive activity of LBP-filled PXR mutant” value on PXR(S208W/S247W/C284W) is listed as “did not affect constitutive activity of the PXR mutant”.

In the case of `Cc1ccc(NC(=O)Cc2ccccc2)cc1Nc1ccc2c(c1)CCCCC2=O` [Compound 73], the “suppression of constitutive activity of LBP-filled PXR mutant” value at PXR(S208W/S247W/C284W) is listed as 40%.

Regarding `O=C(Nc1ccc(F)c(Nc2ccc3c(c2)CCCCC3=O)c1)c1cccc(F)c1` [Compound 109], the “Selectivity Score (< 50 % residual activity)” value is 0.024 in [1] (1.0E-05 M) and 0.012 in [1] (1.0E-06 M). For the same compound, the Residual activity at PKCeta (1.0E-05 M) is 110 % of control; on PKCeta (1.0E-06 M), 116 % of control; on CDK1/CycB1 (1.0E-05 M) it was 114 % of control; on CDK1/CycB1 (1.0E-06 M), 106 % of control; on DAPK2 (1.0E-05 M) it was 133 % of control; on DAPK2 (1.0E-06 M), 110 % of control. The Residual activity at TBK1 (1.0E-05 M) is listed as 93 % of control; at TBK1 (1.0E-06 M), 93 % of control; on WNK2 (1.0E-05 M) it was 96 % of control; on WNK2 (1.0E-06 M), 90 % of control; on PKCbeta1 (1.0E-05 M), 87 % of control; at PKCbeta1 (1.0E-06 M), 93 % of control. Further, the IC50 at PXR amounted to 2.9 µM.
